Laboratory results published in PubChem BioAssay (NCI).
“And” between values parts separate entries of the source, which are not always exact repeats. Equal entries are not always repeated.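 48-hour exposure; five concentrations; linearly interpolated endpoints. At the GI50, growth is halved. TGI: concentration producing complete growth inhibition.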

Legend:
Assay in all cases: NCI-60 cell line screen, 48 h
[1] = system: EKVX NSCLC
[2] = system: UO-31 renal
[3] = system: SK-OV-3 ovarian
[4] = system: MALME-3M melanoma
[5] = system: U251 CNS
[6] = system: LXFL 529 NSCLC
[7] = system: SN12C renal
[8] = system: K-562 leukemia
[9] = system: UACC-257 melanoma
[10] = system: M19-MEL melanoma

O=[N+]([O-])c1cccc(C2=NOC3CCCC23)c1 (centres undefined)
TGI [1]: > 100 µM | TGI [2]: > 100 µM | TGI [3]: > 100 µM | TGI [4]: > 100 µM | TGI [5]: > 100 µM | TGI [6]: > 100 µM | TGI [7]: > 100 µM | TGI [8]: > 100 µM | TGI [9]: > 100 µM | TGI [10]: > 100 µM

O=C(CO[N+](=O)[O-])OCC(=O)c1ccccc1
TGI [1]: > 100 µM | TGI [2]: > 100 µM | TGI [3]: > 100 µM | TGI [4]: > 100 µM | TGI [5]: > 100 µM | TGI [6]: > 100 µM | TGI [7]: > 100 µM | TGI [8]: > 100 µM | TGI [9]: > 100 µM | TGI [10]: > 100 µM

C/C(=N\NC(=O)c1ccncc1)c1ccccc1O
GI50 [1]: 2.34 µM | TGI [1]: > 100 µM | GI50 [2]: 0.973 µM | TGI [2]: 28.9 µM | GI50 [3]: 4.84 µM | TGI [3]: > 100 µM | GI50 [4]: 5.39 µM | TGI [4]: 97.3 µM | GI50 [5]: 3.31 µM | TGI [5]: > 100 µM | GI50 [7]: 4.79 µM | TGI [7]: > 100 µM | GI50 [8]: 5.78 µM | TGI [8]: > 100 µM | GI50 [9]: 4.14 µM | TGI [9]: > 100 µM

CCNc1nc(-c2ccc(Cl)c(OC)c2)c(-c2ccnc(NCCNS(=O)(=O)c3ccc(Cl)cc3)n2)s1
GI50 [1]: 3.74 µM | TGI [1]: > 100 µM | GI50 [2]: 2.51 µM | TGI [2]: 6.37 µM | GI50 [3]: 3.66 µM | TGI [3]: 55.1 µM | GI50 [4]: 2.2 µM | TGI [4]: 7.39 µM | GI50 [5]: 3.24 µM | TGI [5]: 10.3 µM | GI50 [7]: 3.41 µM | TGI [7]: > 100 µM | GI50 [8]: 3.17 µM | TGI [8]: > 100 µM | GI50 [9]: 3.44 µM | TGI [9]: 49.4 µM

COc1cccc(OC)c1/C=N\N1C(=O)c2ccccc2C1=O
TGI [1]: > 100 µM | TGI [2]: > 100 µM | TGI [4]: > 100 µM | TGI [6]: > 100 µM | TGI [7]: > 100 µM | TGI [8]: > 100 µM | TGI [9]: > 100 µM | TGI [10]: > 100 µM

O=C(/C=C/N1CCN(c2cccc(Cl)c2)CC1)c1ccc(Cl)cc1
GI50 [1]: 25.9 µM | TGI [1]: 85.3 µM | GI50 [2]: 31.5 µM | TGI [2]: > 100 µM | GI50 [3]: 50.9 µM | TGI [3]: > 100 µM | GI50 [4]: 4.89 µM | TGI [4]: 26.4 µM | GI50 [5]: 42.1 µM | TGI [5]: > 100 µM | GI50 [7]: 24.1 µM | TGI [7]: 65 µM | GI50 [8]: 28 µM | TGI [8]: > 100 µM | GI50 [9]: 23.8 µM | TGI [9]: 63.5 µM

CCOC(=O)C1C(=O)C(=O)N2CCc3c([nH]c4ccccc34)C12 (centres undefined)
TGI [1]: > 100 µM | TGI [2]: > 100 µM | TGI [3]: > 100 µM | TGI [4]: > 100 µM | TGI [5]: > 100 µM | TGI [6]: > 100 µM | TGI [7]: > 100 µM | TGI [8]: > 100 µM | TGI [10]: > 100 µM

NC1=NN(c2ccccc2)C(=O)C1/C(=N\NC(=O)c1cc2ccccc2cc1O)C(=O)Nc1ccc(Cl)cc1 (centres undefined)
TGI [1]: 62.9 µM | TGI [2]: 96.1 µM | TGI [3]: > 100 µM | TGI [4]: > 100 µM | TGI [5]: > 100 µM | TGI [6]: > 100 µM | TGI [7]: > 100 µM | TGI [8]: > 100 µM | TGI [9]: 80.4 µM | TGI [10]: 89.6 µM

CC1=CC(=O)N2[C@H](OC[C@@H]2C(C)C)O1
TGI [2]: > 100 µM | TGI [3]: > 100 µM | TGI [4]: > 100 µM | TGI [5]: > 100 µM | TGI [6]: > 100 µM | TGI [7]: > 100 µM | TGI [8]: > 100 µM | TGI [9]: > 100 µM | TGI [10]: > 100 µM

CCNC(=O)O/N=C1/C=C2CC[C@@H]3C(CC[C@@]4(C)C3CC[C@@H]4OC(=O)NCC)[C@@]2(C)CC1 (some centres undefined)
TGI [1]: 16.2 µM | TGI [2]: 3.46 µM | TGI [3]: 7.8 µM | TGI [5]: 5.28 µM | TGI [6]: 3.4 µM | TGI [7]: 14.6 µM | TGI [8]: 12.7 µM | TGI [9]: 11.1 µM | TGI [10]: 10.3 µM

CCOC(=O)NC/C=C/CO
TGI [2]: > 100 µM | TGI [3]: > 100 µM | TGI [4]: > 100 µM | TGI [5]: > 100 µM | TGI [6]: > 100 µM | TGI [7]: > 100 µM | TGI [8]: > 100 µM | TGI [9]: > 100 µM | TGI [10]: > 100 µM

COC(=O)N/N=C(\c1nc2ccc(Cl)cc2[nH]c1=O)C(O)c1ccc([N+](=O)[O-])cc1 (centres undefined)
TGI [2]: > 100 µM | TGI [3]: > 100 µM | TGI [4]: > 100 µM | TGI [5]: > 100 µM | TGI [6]: > 100 µM | TGI [7]: > 100 µM | TGI [8]: > 100 µM | TGI [9]: > 100 µM | TGI [10]: > 100 µM

O=NNc1nc(-c2ccccn2)nc2ccccc12
TGI [1]: > 100 µM | TGI [2]: > 100 µM | TGI [3]: > 100 µM | TGI [4]: 19.6 µM | TGI [5]: > 100 µM | TGI [7]: > 100 µM | TGI [8]: > 100 µM | TGI [9]: > 100 µM

Cc1c2cc[n+](C)cc2c(C)c2c1[nH]c1ccc(Oc3ccccc3)cc12
TGI [1]: > 100 µM and 51.7 µM | TGI [2]: 40 µM and > 38.1 µM | TGI [3]: > 73.5 µM and 21.4 µM | TGI [5]: > 100 µM | TGI [6]: 6.13 µM and 6.82 µM | TGI [7]: > 100 µM | TGI [8]: > 24 µM | TGI [9]: 6.96 µM and 8.42 µM | GI50 [10]: 2.56 µM and 3.23 µM | TGI [10]: 24.5 µM and > 100 µM

Oc1ccc(/C=N/Nc2nnc(N/N=C/c3ccc(O)cc3O)c3ccccc23)c(O)c1
GI50 [1]: 0.349 µM | GI50 [2]: 0.282 µM | TGI [2]: 3.92 µM | GI50 [3]: 0.552 µM | TGI [3]: 4.5 µM | GI50 [4]: 0.633 µM | TGI [4]: 4.28 µM | GI50 [5]: 0.312 µM | TGI [5]: 0.976 µM and 5.34 µM | GI50 [7]: 0.507 µM | TGI [7]: 6.72 µM | GI50 [8]: 0.346 µM | GI50 [9]: 1.84 µM | TGI [9]: 7.73 µM

O=C1COc2cc3c(cc2N1)SCC(=O)N3
TGI [1]: > 100 µM | TGI [2]: > 100 µM | TGI [3]: > 100 µM | TGI [4]: > 100 µM | TGI [6]: > 100 µM | TGI [8]: > 100 µM | TGI [9]: > 100 µM | TGI [10]: > 100 µM

COc1cccc2c(Nc3ccc(C(=O)NCCN4CCNCC4)cc3)cc(-c3ccccc3)nc12
GI50 [1]: > 100 µM | TGI [1]: > 100 µM | GI50 [2]: 49.4 µM | TGI [2]: > 100 µM | GI50 [3]: > 100 µM | TGI [3]: > 100 µM | GI50 [4]: 21.6 µM | TGI [4]: 47.6 µM | GI50 [5]: 34.8 µM | TGI [5]: > 100 µM | GI50 [7]: 50.7 µM | TGI [7]: > 100 µM | GI50 [8]: 27.7 µM | TGI [8]: 75.3 µM | GI50 [9]: > 100 µM | TGI [9]: > 100 µM

CC(=O)Nc1ccc(C(=O)COc2cccc(/C=C3\CCc4ccccc4C3=O)c2)cc1
GI50 [1]: 14.3 µM | TGI [1]: 68.7 µM | GI50 [2]: 15.5 µM | TGI [2]: 64 µM | GI50 [3]: 30.1 µM | TGI [3]: > 100 µM | GI50 [4]: 15.8 µM | TGI [4]: 39.5 µM | GI50 [5]: 12.4 µM | TGI [5]: 27.8 µM | GI50 [7]: 27.6 µM | TGI [7]: > 100 µM | GI50 [8]: 2.8 µM | TGI [8]: 12.7 µM | GI50 [9]: 15.7 µM | TGI [9]: 39 µM

CCC(=C(c1ccc(OCCN(CC)CC)cc1)c1ccc(OCCN(CC)CC)cc1)c1ccc(Cl)cc1
GI50 [1]: 0.641 µM | TGI [1]: 1.46 µM | GI50 [2]: 0.484 µM | TGI [2]: 0.94 µM | GI50 [3]: 0.594 µM | TGI [3]: 1.16 µM | GI50 [4]: 0.567 µM | TGI [4]: 1.07 µM | GI50 [5]: 0.57 µM | TGI [5]: 1.14 µM | GI50 [7]: 0.606 µM | TGI [7]: 1.24 µM | GI50 [8]: 0.156 µM | TGI [8]: 0.898 µM | GI50 [9]: 0.62 µM | TGI [9]: 1.25 µM
